Assay results published in patent US5880158A, “Propionamide anticonvulsants” (Research Corporation Tech., Inc., priority 1997, dated 1999).

Key:
[1] = rotorod test, neurologic toxicity in mice; type: in vivo; conditions: mouse, ip, intraperitoneal, at time of peak effect, numbers in parentheses 95% confidence intervals, read-out: Tox TD50
Description: (§1) Activity was established using the electrical (maximal electroshock or MES) test. In the MES test, a drop of electrolyte solution with anesthetic (0.5% butacaine hemisulfate in 0.9% sodium chloride) was used in the eyes of the animals prior to positioning the corneal electrodes and delivery of current. A 60 cycle alternating current was administered for 0.2 sec. at 50 mA. Protection endpoints were defined as the abolition of the hind limb tonic extensor component of the induced seizure. In mice, the effects of compounds on forced spontaneous motor activity were determined using the rotorod test. […] Normally under these conditions, a mouse can maintain its balance almost indefinitely. In the mouse identification screening study all compounds were given at three dose levels (30, 100, 300 mg/kg) and two time periods (0.5, 4h). Typically, in the MES seizures test one animal was used at 30 mg/kg and 300 mg/kg, and three animals at 100 mg/kg. In the rotorod toxicity test four animals were used at 30 mg/kg, and 300 mg/kg, and eight animals at 100 mg/kg. If activity was found at 30 mg/kg, then lower dosages were used to find the ED50 values.

[2] = system: male albino Cartworth Farms No. 1 mice; test: maximal electroshock seizure (MES) test in mice; type: in vivo; conditions: intraperitoneal; for ED50: Mus musculus, ip, at time of peak effect, numbers in parentheses 95% confidence intervals
Description: as §1

[3] = system: male albino Cartworth Farms No. 1 mice; test: protective index (TD50/ED50), rotorod versus MES in mice; conditions: for protective index (in words): compared with phenytoin, phenobarbital and valproate
Text: Compounds were screened under the auspices of the National Institutes of Health for anticonvulsant activity in male albino Cartworth Farms No. 1 mice (ip route). Activity was established using the electrical (maximal electroshock or MES) test. In the MES test, a drop of electrolyte solution with anesthetic (0.5% butacaine hemisulfate in 0.9% sodium chloride) was used in the eyes of the animals prior to positioning the corneal electrodes and delivery of current. A 60 cycle alternating current was administered for 0.2 sec. at 50 mA. Protection endpoints were defined as the abolition of the hind limb tonic extensor component of the induced seizure. In mice, the effects of compounds on forced spontaneous motor activity were determined using the rotorod test. […] Normally under these conditions, a mouse can maintain its balance almost indefinitely. In the mouse identification screening study all compounds were given at three dose levels (30, 100, 300 mg/kg) and two time periods (0.5, 4h). Typically, in the MES seizures test one animal was used at 30 mg/kg and 300 mg/kg, and three animals at 100 mg/kg. In the rotorod toxicity test four animals were used at 30 mg/kg, and 300 mg/kg, and eight animals at 100 mg/kg.
The quantitative determination of the median effective (ED50) and toxic doses (TD50) were conducted at previously calculated times of peak effect. Groups of at least eight animals were tested using different doses of test compound until at least two points were determined between 100 and 0% protection and minimal motor impairment. The dose of candidate substance required to produce the defined endpoint in 50% of the animals in each test and the 95% confidence interval were calculated.

[4] = system: male albino Cartworth Farms No. 1 mice; test: rotorod test, neurologic toxicity in mice; type: in vivo; conditions: intraperitoneal, at time of peak effect, numbers in parentheses 95% confidence intervals
Description: as §1

SMILES	TD50 [1] [mg/kg]	anticonvulsant activity / efficacy (in words) ([2]; MES)	ED50 [2] [mg/kg]	Tox TD50 [4] [mg/kg]	further results
O=C(NCc1ccccc1)C(O)CO (racemic) [R, S OH CH2 OH, N-Benzyl 2,3-Dihydroxypropionamide]	> 300	very low anticonvulsant activity	–	–	–
COC[C@@H](OC)C(=O)NCc1ccccc1 [R OCH3 CH2 OCH3, (R)-N-Benzyl-2,3-dimethoxypropionamide]	300	–	–	–	–
COCC(OC)C(=O)NCc1ccccc1 (stereo not shown) [R, S OCH3 CH2 OCH3, N-BENZYL 2,3-DIMETHOXY PROPIONAMIDE]	280	much greater efficacy	30	–	protective index (in words) ([3]; listed as N-Benzyl 2,3-dimethyoxypropionamide): unexpectedly high protective index; protective index (in words) ([3]; listed as diether): significantly greater than the P.I. values of phenytoin, phenobarbital and valproate; P.I. (protective index, TD50/ED50) ([3]; intraperitoneal): 9.3; P.I., times more effective than that of the dihydroxy compound ([3]; intraperitoneal, diether versus dihydroxy compound): greater than 3 times; ED50, times more effective than that of the dihydroxy compound ([2]; MES, diether versus dihydroxy compound): greater than 3 times
CCC1(c2ccccc2)C(=O)NC(=O)NC1=O [phenobarbital]	–	–	22	–	–
O=C1NC(=O)C(c2ccccc2)(c2ccccc2)N1 [phenytoin]	–	–	6.5	43	–
CCCC(CCC)C(=O)O [valproate]	–	–	290	480	–
